In brackets after ≈: the same amount, converted by molar mass.
How the values were obtained:
[1] = hydrolysis of esters in phosphate buffer; type: in vitro ADME; conditions: pH 7.4, 10 μg/ml, 30 min, 37°C, corrected for blank, read-out: % hydrolyzed after 30 min at 37°C, phosphate buffer
Experimental: (§1) The hydrolysis of the esters of the aminopenicillins prepared according to the invention were determined in buffer solution with and without human serum being present. The esters were incubated for 30 min at 37°C at a concentration of 10 μg/ml in Sorensen's phosphate buffer (pH 7.4) and in another experiment in the same buffer containing 10 % human serum. The test solutions were extracted with ethyl acetate to remove unhydrolyzed ester and were analyzed microbiologically for their contents of aminopenicillin. Blank values were obtained by dissolving the esters in phosphate buffer at the same concentration and immediately perform the extraction. The values in the table are corrected for the blank values.

[2] = hydrolysis of esters in phosphate buffer + 10% human serum; type: in vitro ADME; conditions: buffer with 10% serum; pH 7.4, 10% human serum, 10 μg/ml, 30 min, 37°C, corrected for blank; read-out: % hydrolyzed after 30 min at 37°C, phosphate buffer + 10% human serum
Experimental: as §1

[3] = background statement on α-aminobenzylpenicillin; cited from earlier work
[4] = test system: Staph.aur. Oxford; assay: antibacterial activity, tube dilution procedure in broth, Staph. aureus Oxford; type: cell-based; conditions: Staphylococcus aureus
Description: (§2) (termination of concentration according to the hydroxamate method; antibacterial activity determined by tube dilution procedure in broth).

[5] = test system: E.coli; assay: antibacterial activity, tube dilution procedure in broth, E. coli; type: cell-based; conditions: Escherichia coli
Description: as §2

[6] = test system: P.mirabilis; assay: antibacterial activity, tube dilution procedure in broth, P. mirabilis; type: cell-based; conditions: Proteus mirabilis
Description: as §2

[7] = test system: Staph. aureus Oxford; assay: growth inhibition of Staph. aureus Oxford (Examples); type: cell-based; conditions: for MIC: Staphylococcus aureus, read-out: inhibited the growth of Staph. aureus Oxford at a concentration of
[8] = test system: E. coli; assay: growth inhibition of E. coli (Example 7a); type: cell-based; conditions: Escherichia coli; read-out: inhibited the growth of E. coli at
[9] = test system: P. mirabilis; assay: growth inhibition of P. mirabilis (Example 7a); type: cell-based; conditions: Proteus mirabilis; read-out: inhibited the growth of P. mirabilis at
[10] = human, in vivo, po, 480 min
Experimental: The oral absorption of 1'-ethoxycarbonyloxyethyl 6-(D-α-aminophenylacetamino)penicillanate (I) and of 1'-acetoxyethyl6-(D-α-aminophenylacetamido)penicillanate (II) was studied in a cross-over experiment in 9 healthy male volunteers using 6-(D-α-aminophenylacetamido)penicillanic acid (ampicillin) as a reference. The compounds were administered in tablets with the following composition:
The amounts of the esters correspond to 250 mg of free ampicillin. The reference compound was given in a commercially available tablet (Doktacillin 0.25 g) containing 250 mg of free ampicillin. The tablets were taken on an empty stomach. Blood samples were drawn at preset intervals and analyzed for their contents of ampicillin using a microbiological essay. The following mean serum levels (in μg/ml) with standard error of the mean were found:
The mean cumulative urinary excretions after 8 hours in percentage of the dose given were: […]

[11] = test system: Staph. aureus Oxford; assay: growth inhibition of Staph. aureus Oxford, solution test on agar; type: cell-based; conditions: Staphylococcus aureus, read-out: inhibited the growth of Staph. Aureus Oxford at a concentration of
Experimental: (§3) The product inhibited the growth of Staph. Aureus Oxford at a concentration of 0.13 μg/ml and of E.coliat 125 μg/ml (solution test on agar) and contained in its IR-spectrum a strong absorption band at 1750 cm^-^1 showing presence of a β-lactame and an ester function.

[12] = test system: E.coli; assay: growth inhibition of E. coli, solution test on agar; type: cell-based; conditions: Escherichia coli, read-out: inhibited the growth of E.coli at
Experimental: as §3

## CCCCC(=O)OC(C)OC(=O)[C@@H]1N2C(=O)[C@@H](NC(=O)[C@H](N)c3ccccc3)[C@H]2SC1(C)C (stereo partly drawn) [10 --CH--OCOC4 H9, 1'-valeryloxy-ethyl 6-(D-α-aminophenylacetamido)penicillanate]
[1]
  degraded at 0.5 h: 4.9%
[2]
  metabolised at 0.5 h: 14.3%

## CC(OC(=O)C(C)C)OC(=O)[C@@H]1N2C(=O)[C@@H](NC(=O)[C@H](N)c3ccccc3)[C@H]2SC1(C)C (stereo partly drawn) [10 --CH--OCOCH(CH3)2, 1'-isobutyroxy-ethyl 6-(D-α-aminophenylacetamido)penicillanate]
[1]
  degraded at 0.5 h: 5.2%
[2]
  metabolised at 0.5 h: 12.1%

## CC1(C)S[C@@H]2[C@H](NC(=O)[C@H](N)c3ccccc3)C(=O)N2[C@H]1C(=O)O [Ampicillin, 6-(D-α-aminophenylacetamido)penicillanic acid]
[3]
  oral absorption: orally absorbed relatively incompletely

## CCOC(=O)NCOC(=O)[C@@H]1N2C(=O)[C@@H](NC(=O)[C@H](N)c3ccccc3)[C@H]2SC1(C)C [Ethylcarbamatomethylester, ethoxycarbonylaminomethyl 6-(D-α-aminophenylacetamido)penicillanate]
[4]
  MIC: 0.16 µg/mL (≈ 0.355 µM)
[5]
  MIC: 12.5 µg/mL (≈ 27.7 µM)
[6]
  MIC: 6.25 µg/mL (≈ 13.9 µM)
[1]
  degraded at 0.5 h: 7.1%
[2]
  metabolised at 0.5 h: 15.2%

## CC(=O)OC(C)OC(=O)[C@@H]1N2C(=O)[C@@H](NC(=O)C(N)CCC(C)C)[C@H]2SC1(C)C (stereo partly drawn) [Example 5, 1'-Acetoxyethyl α-amino-δ-methylpentylpenicillinate]
[7]
  MIC: 0.63 µg/mL (≈ 1.47 µM)
[1]
  degraded at 0.5 h: 6%
[2]
  metabolised at 0.5 h: 15.3%

## CC(=O)OC(C)OC(=O)[C@@H]1N2C(=O)[C@@H](NC(=O)[C@H](N)c3ccccc3)[C@H]2SC1(C)C (stereo partly drawn) [Example 7, 1'-Acetoxyethyl 6-(D-α-aminophenylacetamido)penicillanate]
[7]
  MIC: 0.32 µg/mL (≈ 0.735 µM)
[7]; listed as Example 7b
  inhibited the growth of Staph. aureus Oxford at a concentration of: 0.25 µg/mL
[8]
  MIC: 50 µg/mL (≈ 115 µM)
[9]
  MIC: 50 µg/mL (≈ 115 µM)
[10]
  mean cumulative urinary excretion after 8 hours in percentage of the dose given: 53.7 ± 4.9%
[1]
  degraded at 0.5 h: 7%
[2]
  metabolised at 0.5 h: 17%

## CCC(=O)OC(C)OC(=O)[C@@H]1N2C(=O)[C@@H](NC(=O)[C@H](N)c3ccccc3)[C@H]2SC1(C)C (stereo partly drawn) [Example 9, 1'-Propionyloxyethyl 6-(D-α-aminophenylacetamido) penicillanate]
[7]
  MIC: 0.63 µg/mL (≈ 1.4 µM)
[1]
  degraded at 0.5 h: 6.8%
[2]
  metabolised at 0.5 h: 17.6%

## COC(=O)OCOC(=O)[C@@H]1N2C(=O)[C@@H](NC(=O)[C@H](N)c3ccccc3)[C@H]2SC1(C)C [Example 12, Methoxycarbonyloxymethyl 6-(D-α-aminophenylacetamido) penicillanate]
[7]
  MIC: 0.13 µg/mL (≈ 0.297 µM)
[4]
  MIC: 0.16 µg/mL (≈ 0.366 µM)
[5]
  MIC: 25 µg/mL (≈ 57.1 µM)
[6]
  MIC: 6.25 µg/mL (≈ 14.3 µM)
[1]
  degraded at 0.5 h: 24.8%
[2]
  metabolised at 0.5 h: 77.9%

## CCOC(=O)OC(C)OC(=O)[C@@H]1N2C(=O)[C@@H](NC(=O)[C@H](N)c3ccccc3)[C@H]2SC1(C)C (stereo partly drawn) [Example 15, 1'-Ethoxycarbonyloxyethyl 6-(D-α-aminophenylacetamido) penicillanate]
[7]
  MIC: 0.13 µg/mL (≈ 0.279 µM)
[11]
  MIC: 0.13 µg/mL (≈ 0.279 µM)
[12]
  MIC: 125 µg/mL (≈ 269 µM)
[10]
  mean cumulative urinary excretion after 8 hours in percentage of the dose given: 53.4 ± 2.5%
[1]
  degraded at 0.5 h: 3.8%
[2]
  metabolised at 0.5 h: 57.1%

## CCOC(=O)OCOC(=O)[C@@H]1N2C(=O)[C@@H](NC(=O)[C@H](N)c3ccccc3)[C@H]2SC1(C)C [Example 17, Ethoxycarbonyloxymethyl 6-(D-α-aminophenylacetamido) penicillanate]
[7]
  MIC: 0.05 µg/mL (≈ 0.111 µM)
[1]
  degraded at 0.5 h: 13.3%
[2]
  metabolised at 0.5 h: 64.7%

## CCCOC(=O)OCOC(=O)[C@@H]1N2C(=O)[C@@H](NC(=O)[C@H](N)c3ccccc3)[C@H]2SC1(C)C [Example 18, Propoxycarbonyloxymethyl 6-(D-α-aminophenylacetamido) penicillanate]
[7]
  MIC: 0.05 µg/mL (≈ 0.107 µM)
[1]
  degraded at 0.5 h: 14.5%
[2]
  metabolised at 0.5 h: 53.7%

## CC(C)OC(=O)OCOC(=O)[C@@H]1N2C(=O)[C@@H](NC(=O)[C@H](N)c3ccccc3)[C@H]2SC1(C)C [Example 19, Isopropoxycarbonyloxymethyl 6-(D-α-aminophenylacetamido)penicillanate]
[7]
  MIC: 0.05 µg/mL (≈ 0.107 µM)
[1]
  degraded at 0.5 h: 15.2%
[2]
  metabolised at 0.5 h: 68.4%

## CCCCOC(=O)OCOC(=O)[C@@H]1N2C(=O)[C@@H](NC(=O)[C@H](N)c3ccccc3)[C@H]2SC1(C)C [Example 20, Butoxycarbonyloxymethyl 6-(D-α-aminophenylacetamido) penicillanate]
[7]
  MIC: 0.05 µg/mL (≈ 0.104 µM)
[1]
  degraded at 0.5 h: 13%
[2]
  metabolised at 0.5 h: 41.1%

## CC(=O)OC(C)OC(=O)[C@@H]1N2C(=O)[C@@H](NC(=O)[C@H](N)c3cccc(F)c3)[C@H]2SC1(C)C (stereo partly drawn) [Example 22, 1'-acetoxy-ethyl 6-(D-α-amino-m-fluorophenylacetamido) penicillanate]
[7]
  MIC: 0.25 µg/mL (≈ 0.551 µM)
[1]
  degraded at 0.5 h: 3.1%
[2]
  metabolised at 0.5 h: 16.4%

## CCOC(=O)OC(C)OC(=O)[C@@H]1N2C(=O)[C@@H](NC(=O)[C@H](N)c3cccc(F)c3)[C@H]2SC1(C)C (stereo partly drawn) [Example 23, 1'-Ethyloxycarbonyloxyethyl 6-(D-α-amino-m-fluorophenylacetamido)penicillanate]
[1]
  degraded at 0.5 h: 2.6%
[2]
  metabolised at 0.5 h: 37.7%

## CC(=O)OC(C)OC(=O)[C@@H]1N2C(=O)[C@@H](NC(=O)[C@H](N)c3ccc(F)cc3)[C@H]2SC1(C)C (stereo partly drawn) [Example 24, 1'-Acetoxyethyl 6-(D-α-amino-p-fluorophenylacetamido)penicillanate]
[7]
  MIC: 0.25 µg/mL (≈ 0.551 µM)
[1]
  degraded at 0.5 h: 9%
[2]
  metabolised at 0.5 h: 14.3%

## CCOC(=O)OC(C)OC(=O)[C@@H]1N2C(=O)[C@@H](NC(=O)[C@H](N)c3ccc(F)cc3)[C@H]2SC1(C)C (stereo partly drawn) [Example 25, 1'-Ethyloxycarbonyloxyethyl 6-(D-α-amino-p-fluorophenylacetamido)penicillanate]
[7]
  MIC: 0.25 µg/mL (≈ 0.517 µM)
[1]
  degraded at 0.5 h: 1.4%
[2]
  metabolised at 0.5 h: 20.2%

## CC(=O)OC(C)OC(=O)[C@@H]1N2C(=O)[C@@H](NC(=O)C(N)c3ccc(Cl)cc3)[C@H]2SC1(C)C (stereo partly drawn) [Example 26, 1'-Acetoxyetyl 6-(α-amino-p-chlorophenylacetamido)penicillanate]
[7]
  MIC: 0.63 µg/mL (≈ 1.34 µM)
[1]
  degraded at 0.5 h: 10.8%
[2]
  metabolised at 0.5 h: 15.6%

## CC(=O)OC(C)OC(=O)[C@@H]1N2C(=O)[C@@H](NC(=O)[C@H](N)c3ccc(O)cc3)[C@H]2SC1(C)C (stereo partly drawn) [Example 27, 1'-Acetoxyethyl 6-(D-α-amino-p-hydroxyphenylacetamido)penicillanate]
[7]
  MIC: 0.25 µg/mL (≈ 0.554 µM)
[1]
  degraded at 0.5 h: 2.5%
[2]
  metabolised at 0.5 h: 6.8%

## CCOC(=O)OC(C)OC(=O)[C@@H]1N2C(=O)[C@@H](NC(=O)[C@H](N)c3ccc(O)cc3)[C@H]2SC1(C)C (stereo partly drawn) [Example 28, 1'-Ethoxycarbonyloxyethyl 6-(D-α-amino-p-hydroxyphenylacetamido)penicillanate]
[7]
  MIC: 0.25 µg/mL (≈ 0.519 µM)
[1]
  degraded at 0.5 h: 5%
[2]
  metabolised at 0.5 h: 33.1%

## CC(=O)OC(C)OC(=O)[C@@H]1N2C(=O)[C@@H](NC(=O)C(N)c3ccoc3)[C@H]2SC1(C)C (stereo partly drawn) [Example 29, 1'-Acetoxyethyl 6-(α-amino-3-furylacetamido)penicillanate]
[7]
  MIC: 0.63 µg/mL (≈ 1.48 µM)
[1]
  degraded at 0.5 h: 3.5%
[2]
  metabolised at 0.5 h: 12.4%
